These molecules were tested against full-length recombinant human FYN A (Homo sapiens (Human), UniProt P06241) (assay: ADP-Glo Kinase Assay of FYN kinase inhibition). Details: primary screen, initial compounds.
Chain of full-length recombinant human FYN A (P06241 whole entry): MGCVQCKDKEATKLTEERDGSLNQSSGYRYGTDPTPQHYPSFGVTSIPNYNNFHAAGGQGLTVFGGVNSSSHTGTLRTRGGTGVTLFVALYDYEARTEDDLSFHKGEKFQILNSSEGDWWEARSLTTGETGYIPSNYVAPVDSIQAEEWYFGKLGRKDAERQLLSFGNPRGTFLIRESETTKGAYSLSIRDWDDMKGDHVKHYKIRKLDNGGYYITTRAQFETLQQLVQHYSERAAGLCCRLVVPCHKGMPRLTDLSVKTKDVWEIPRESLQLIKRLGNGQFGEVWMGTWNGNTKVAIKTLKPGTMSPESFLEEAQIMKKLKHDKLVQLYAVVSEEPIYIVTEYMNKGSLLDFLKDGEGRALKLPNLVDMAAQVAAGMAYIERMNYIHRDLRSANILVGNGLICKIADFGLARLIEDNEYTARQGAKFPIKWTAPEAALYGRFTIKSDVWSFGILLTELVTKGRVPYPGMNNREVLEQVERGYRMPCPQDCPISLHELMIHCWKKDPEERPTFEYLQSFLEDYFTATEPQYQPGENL
Assay type: biochemical
How it was run: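 GST-tagged full-length FYN A (baculovirus, Sf9) at 3 pg preincubated 30 min RT with compound (10-point 3-fold series from 10 μM) in Tris pH 7.5/MgCl2 buffer. 12-mer tyrosine peptide plus 12.5 pmol ATP added, 90 min RT; ADP measured by ADP-Glo luminescence, IC50 from dose-response.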
Molecule `OCc1ccc(-c2ccc3ncc(-c4cccs4)n3n2)cc1` [Compound 378, [4-[3-(2-thienyl)imidazo [1,2-b]pyridazin-6-yl]phenyl] methanol] has an IC50 of 2360 nM.
For `COc1ccc(-c2cnc3ccc(-c4cccc(NS(C)(=O)=O)c4)nn23)cc1OC` [Compound 379, N-[3-[3-(3,4-dimethoxyphenyl)imidazo[1,2-b]pyridazin-6-yl]phenyl] methane-sulfonamide], the IC50 was 703 nM.
`CC(=O)c1cccc(-c2cnc3ccc(-c4cccc(C(N)=O)c4)nn23)c1` [Compound 380, 3-[3-(3-acetylphenyl)imidazo[1,2-b]pyridazin-6-yl]benzamide] gave an IC50 of 519 nM.
With `CS(=O)(=O)Nc1cccc(-c2ccc3ncc(-c4cccnc4)n3n2)c1` [Compound 381, N-[3-[3-(3-pyridyl)imidazo [1,2-b]pyridazin-6-yl]phenyl] methane-sulfonamide] the IC50 was 1410 nM.
`Oc1cccc(-c2cnc3ccc(-c4ccncc4)nn23)c1` [Compound 382, 3-[6-(4-pyridyl)imidazo [1,2-b]pyridazin-3-yl]phenol] gave an IC50 of 203 nM.
In the case of `Oc1cccc(-c2cnc3ccc(-c4cccc5ncccc45)nn23)c1` [Compound 383, 3-[6-(5-quinolyl)imidazo [1,2-b]pyridazin-3-yl]phenol], the IC50 is reported as 14600 nM.
Molecule `CS(=O)(=O)Nc1cccc(-c2ccc3ncc(-c4cccc(CO)c4)n3n2)c1` [Compound 384] has an IC50 of 1150 nM.
In the case of `COc1cc(-c2cnc3ccc(-c4ccccc4OC)nn23)ccc1O` [Compound 385, 2-methoxy-4-[6-(2-methoxy-phenyl)imidazo[1,2-b]pyridazin-3-yl]phenol], the IC50 is reported as 959 nM.
With `CNC(=O)c1cccc(-c2ccc3ncc(-c4cccc(C(C)=O)c4)n3n2)c1` [Compound 386, 3-[3-(3-acetylphenyl)imidazo[1,2-b]pyridazin-6-yl]-N-methyl-benzamide] the IC50 was 1720 nM.
`OCc1cccc(-c2ccc3ncc(-c4cccs4)n3n2)c1` [Compound 387, [3-[3-(2-thienyl)imidazo [1,2-b]pyridazin-6-yl]phenyl] methanol] was tested, and the IC50 was 1680 nM.
Molecule `Cn1cc(-c2ccc3ncc(-c4cccs4)n3n2)cn1` [Compound 388, 6-(1-methylpyrazol-4-yl)-3-(2-thienyl)imidazo [1,2-b]pyridazine] has an IC50 of 1310 nM.
`COc1ccc(-c2cnc3ccc(-c4cccc(C(=O)NCCO)c4)nn23)cc1OC` [Compound 389, 3-[3-(3,4-dimethoxyphenyl)imidazo[1,2-a]pyridazin-6-yl]-N-(2-hydroxyethyl) benzamide] was tested, and the IC50 was 367 nM.
`Cn1cc(-c2ccc3ncc(-c4ccc5c(c4)OCO5)n3n2)cn1` [Compound 390, 3-(1,3-benzodioxol-5-yl)-6-(1-methylpyrazol-4-yl)imidazo[1,2-b]pyridazine] showed an IC50 of 956 nM.
For `COc1ccc(-c2cnc3ccc(-c4cnn(C)c4)nn23)cc1OC` [Compound 391, 3-(3,4-dimethoxy-phenyl)-6-(1-methylpyrazol-4-yl)imidazo[1,2-b]pyridazine], the IC50 was 367 nM.
With `Oc1cccc(-c2cnc3ccc(-c4cccc(F)c4)nn23)c1` [Compound 392, 3-[6-(3-fluorophenyl)imidazo[1,2-b]pyridazin-3-yl]phenol] the IC50 was 2260 nM.
`CC(=O)c1cccc(-c2cnc3ccc(-c4cccc(N)c4)nn23)c1` [Compound 393, 1-[3-[6-(3-aminophenyl)imidazo[1,2-b]pyridazin-3-yl]phenyl] ethanone] showed an IC50 of 1120 nM.
Work on `COc1ccccc1-c1ccc2ncc(-c3cccnc3)n2n1` [Compound 394, 6-(2-methoxy-phenyl)-3-(3-pyridyl)imidazo [1,2-b]pyridazine] yielded an IC50 of 2350 nM.
`COc1ccc(-c2cnc3ccc(-c4ccncc4)nn23)cc1OC` [Compound 395, 3-(3,4-dimethoxy-phenyl)-6-(4-pyridyl)imidazo [1,2-b]pyridazine] gave an IC50 of 404 nM.
Molecule `Oc1cccc(-c2cnc3ccc(-c4cccnc4)nn23)c1` [Compound 396, 3-[6-(3-pyridyl)imidazo [1,2-b]pyridazin-3-yl]phenol] has an IC50 of 586 nM.
For `Cn1cc(-c2ccc3ncc(-c4cccc(O)c4)n3n2)cn1` [Compound 397, 3-[6-(1-methylpyrazol-4-yl)imidazo[1,2-b]pyridazin-3-yl]phenol], the IC50 was 388 nM.
With `OCc1ccc(-c2cnc3ccc(-c4ccc(F)cc4)nn23)cc1` [Compound 398, [4-[6-(4-fluorophenyl)imidazo[1,2-3]pyridazin-3-yl]phenyl] methanol] the IC50 was 2940 nM.
In the case of `COc1cc(-c2cnc3ccc(-c4cccc(O)c4)nn23)ccc1O` [Compound 399, 4-[6-(3-hydroxyphenyl)imidazo[1,2-b]pyridazin-3-yl]-2-methoxy-phenol], the IC50 is reported as 295 nM.
Molecule `COc1ccc(-c2ccc3ncc(-c4ccncc4)n3n2)cc1OC` [Compound 400, 6-(3,4-dimethoxy-phenyl)-3-(4-pyridyl)imidazo [1,2-b]pyridazine] has an IC50 of 282 nM.
`Fc1ccc(-c2ccc3ncc(-c4cccnc4)n3n2)cc1` [Compound 401, 6-(4-fluorophenyl)-3-(3-pyridyl)imidazo [1,2-b]pyridazine] showed an IC50 of 2780 nM.
`OCc1cccc(-c2ccc3ncc(-c4cccc(Cl)c4)n3n2)c1` [Compound 402, [3-[3-(3-chlorophenyl)imidazo[1,2-b]pyridazin-6-yl]phenyl] methanol] was tested, and the IC50 was 9820 nM.
`Oc1cccc(-c2cnc3ccc(-c4ccc(F)cc4)nn23)c1` [Compound 403, 3-[6-(4-fluorophenyl)imidazo[1,2-b]pyridazin-3-yl]phenol] gave an IC50 of 11900 nM.
Molecule `c1ccc(-c2cnc3ccc(-c4cccs4)nn23)cc1` [Compound 404, 3-phenyl-6-(2-thienyl)imidazo [1,2-b]pyridazine] has an IC50 of 1970 nM.
Molecule `COc1ccc(-c2cnc3ccc(-c4cccnc4)nn23)cc1OC` [Compound 405, 3-(3,4-dimethoxy-phenyl)-6-(3-pyridyl)imidazo [1,2-b]pyridazine] has an IC50 of 549 nM.
Molecule `CC(=O)Nc1cccc(-c2ccc3ncc(-c4cccc(O)c4)n3n2)c1` [Compound 406, N-[3-[3-(3-hydroxyphenyl)imidazo[1,2-b]pyridazin-6-yl]phenyl] acetamide] has an IC50 of 1650 nM.
For `COc1cc(-c2cnc3ccc(-c4ccc(CO)cc4)nn23)ccc1O` [Compound 407, 4-[6-[4-(hydroxymethyl)phenyl]imidazo [1,2-b]pyridazin-3-yl]-2-methoxy-phenol], the IC50 was 125 nM.
`CNC(=O)c1cccc(-c2ccc3ncc(-c4ccc(OC)c(OC)c4)n3n2)c1` [Compound 408, 3-[3-(3,4-dimethoxyphenyl)imidazo[1,2-b]pyridazin-6-yl]-N-methyl-benzamide] showed an IC50 of 3490 nM.
With `CC(=O)Nc1cccc(-c2ccc3ncc(-c4ccncc4)n3n2)c1` [Compound 409, N-[3-[3-(4-pyridyl)imidazo [1,2-b]pyridazin-6-yl]phenyl] acetamide] the IC50 was 598 nM.
In the case of `c1cncc(-c2cnc3ccc(-c4ccoc4)nn23)c1` [Compound 410, 6-(3-furyl)-3-(3-pyridyl)imidazo [1,2-b]pyridazine], the IC50 is reported as 2350 nM.
For `COc1ccc(-c2ccc3ncc(-c4cccc(NC(C)=O)c4)n3n2)cc1OC` [Compound 411, N-[3-[6-(3,4-dimethoxyphenyl)imidazo[1,2-p]pyridazin-3-yl]phenyl] acetamide], the IC50 was 259 nM.
Work on `Oc1cccc(-c2cnc3ccc(-c4ccoc4)nn23)c1` [Compound 412, 3-[6-(3-furyl)imidazo[1,2-b]pyridazin-3-yl]phenol] yielded an IC50 of 1060 nM.
For `CC(=O)c1cccc(-c2cnc3ccc(-c4ccncc4)nn23)c1` [Compound 413, 1-[3-[6-(4-pyridyl)imidazo [1,2-b]pyridazin-3-yl]phenyl] ethanone], the IC50 was 371 nM.
`Cc1cccc(Cc2ccc3ncc(-c4ccncc4)n3n2)c1` [Compound 414, 6-(m-tolylmethyl)-3-(4-pyridyl)imidazo [1,2-b]pyridazine] was tested, and the IC50 was 977 nM.
`Fc1ccc(-c2ccc3ncc(-c4ccc5c(c4)OCO5)n3n2)cc1` [Compound 415, 3-(1,3-benzodioxol-5-yl)-6-(4-fluorophenyl) imidazo[1,2-b]pyridazine] gave an IC50 of 7600 nM.
`COc1ccc(-c2ccc3ncc(-c4ccc(OC)c(OC)c4)n3n2)cc1OC` [Compound 416, 3,6-bis(3,4-dimethoxyphenyl) imidazo[1,2-b]pyridazine] showed an IC50 of 538 nM.
`COc1ccccc1-c1ccc2ncc(-c3cccc(O)c3)n2n1` [Compound 417, 3-[6-(2-methoxyphenyl)imidazo[1,2-b]pyridazin-3-yl]phenol] gave an IC50 of 2740 nM.
`OCc1ccc(-c2cnc3ccc(-c4ccccc4)nn23)cc1` [Compound 418, [4-(6-phenylimidazo [1,2-b]pyridazin-3-yl)phenyl] methanol] gave an IC50 of 1460 nM.
With `CC(=O)Nc1ccc(-c2ccc3ncc(-c4ccc(CO)cc4)n3n2)cc1` [Compound 419, N-[4-[3-[4-(hydroxymethyl)phenyl]imidazo [1,2-b]pyridazin-6-yl]phenyl] acetamide] the IC50 was 21500 nM.
With `COc1cc(-c2cnc3ccc(-c4cccc(CO)c4)nn23)ccc1O` [Compound 420, 4-[6-[3-(hydroxymethyl)phenyl]imidazo [1,2-b]pyridazin-3-yl]-2-methoxy-phenol] the IC50 was 102 nM.
Molecule `CC(=O)c1cccc(-c2cnc3ccc(-c4cccc(CO)c4)nn23)c1` [Compound 421, 1-[3-[6-[3-(hydroxymethyl)phenyl]imidazo [1,2-b]pyridazin-3-yl]phenyl] ethanone] has an IC50 of 179 nM.
With `COc1cc(-c2ccc3ncc(-c4cccs4)n3n2)ccc1O` [Compound 423, 2-methoxy-4-[3-(2-thienyl)imidazo[1,2-b]pyridazin-6-yl]phenol] the IC50 was 694 nM.
For `O=C(NCCO)c1cccc(-c2ccc3ncc(-c4ccccc4)n3n2)c1` [Compound 424, N-(2-hydroxyethyl)-3-(3-phenyl-imidazo[1,2-b]pyridazin-6-yl)benzamide], the IC50 was 13900 nM.
`c1ccc(Cc2ccc3ncc(-c4ccncc4)n3n2)cc1` [Compound 425, 6-benzyl-3-(4-pyridyl)imidazo [1,2-b]pyridazine] showed an IC50 of 624 nM.
For `NC(=O)c1ccc(-c2ccc3ncc(-c4cccnc4)n3n2)cc1` [Compound 426, 4-[3-(3-pyridyl)imidazo [1,2-b]pyridazin-6-yl]benzamide], the IC50 was 11200 nM.

Source: US10688093B2, “Methods, compositions, and uses of novel Fyn kinase inhibitors” (priority 2015, dated 2020)
